# Laboratory results published in ChEMBL document CHEMBL1201862, “PubChem BioAssay data set” (2004).
# Activity calls are given as the source filed them.
# Columns and labels:
# [1] = target: Cytochrome P450 2D6 (Homo sapiens, UniProt P10635);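 further: CYP2D6 member of a cytochrome P450 panel assay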
# [2] = target: Cytochrome P450 2C19 (Homo sapiens, UniProt P33261); assay: Cytochrome panel assay with activity outcomes. Panel member name: p450-cyp2c19 Compounds with AC50 equal or less than 10 uM are considered active; format: functional
# [3] = target: T1, Cytochrome P450 1A2 (Homo sapiens, UniProt P05177);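 further: PubChem cytochrome P450 panel assay, CYP1A2 panel member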
# T1 sequence (P05177 whole entry): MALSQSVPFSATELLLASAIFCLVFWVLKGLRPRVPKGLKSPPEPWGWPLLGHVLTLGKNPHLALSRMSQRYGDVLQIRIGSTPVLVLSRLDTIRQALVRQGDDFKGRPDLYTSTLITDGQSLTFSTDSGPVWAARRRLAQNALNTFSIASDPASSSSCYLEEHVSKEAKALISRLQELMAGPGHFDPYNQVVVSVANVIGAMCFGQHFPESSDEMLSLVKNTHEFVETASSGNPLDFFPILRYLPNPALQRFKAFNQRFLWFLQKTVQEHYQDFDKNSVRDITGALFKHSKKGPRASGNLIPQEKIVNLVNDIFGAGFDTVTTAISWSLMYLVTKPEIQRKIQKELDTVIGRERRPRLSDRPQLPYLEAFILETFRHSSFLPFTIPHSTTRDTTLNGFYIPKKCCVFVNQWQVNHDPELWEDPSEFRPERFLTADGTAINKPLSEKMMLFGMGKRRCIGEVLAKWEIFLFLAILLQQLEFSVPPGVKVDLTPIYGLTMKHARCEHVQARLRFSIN
# [4] = target: Cytochrome P450 3A4 (Homo sapiens, UniProt P08684);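 further: CYP3A4 tested as one member of a cytochrome P450 panel screen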
# [5] = target: Cytochrome P450 2C9 (Homo sapiens, UniProt P11712)
# [6] = target: T2, Heat shock factor protein 1 (Mus musculus, UniProt P38532); assay: inhibition of MG132-induced HSE-luciferase signal, confirmation, cell-based, NIH3T3, luminescence, dose retest (AID 2382); format: functional;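 further: NIH3T3 fibroblasts with HSF1-driven luciferase reporter stressed by proteasome inhibitor MG132; luminescence from HSF1-driven luciferase expression after 8 hours of MG132 stress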
# T2 sequence (P38532 whole entry): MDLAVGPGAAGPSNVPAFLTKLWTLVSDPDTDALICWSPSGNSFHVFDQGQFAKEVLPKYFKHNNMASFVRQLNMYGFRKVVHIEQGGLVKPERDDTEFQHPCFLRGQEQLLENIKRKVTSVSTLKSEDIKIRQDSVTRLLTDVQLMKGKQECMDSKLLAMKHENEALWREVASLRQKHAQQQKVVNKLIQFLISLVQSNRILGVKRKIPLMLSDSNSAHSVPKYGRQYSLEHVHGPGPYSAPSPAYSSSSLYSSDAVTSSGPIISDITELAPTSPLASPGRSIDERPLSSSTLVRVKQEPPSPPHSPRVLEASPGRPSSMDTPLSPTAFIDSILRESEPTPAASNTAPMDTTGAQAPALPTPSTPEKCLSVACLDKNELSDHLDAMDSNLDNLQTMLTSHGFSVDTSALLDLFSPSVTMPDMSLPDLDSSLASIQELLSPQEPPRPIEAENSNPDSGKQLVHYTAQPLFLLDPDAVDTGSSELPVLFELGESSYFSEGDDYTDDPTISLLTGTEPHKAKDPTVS
# Cytochrome P450 2D6, sequence (P10635 whole entry): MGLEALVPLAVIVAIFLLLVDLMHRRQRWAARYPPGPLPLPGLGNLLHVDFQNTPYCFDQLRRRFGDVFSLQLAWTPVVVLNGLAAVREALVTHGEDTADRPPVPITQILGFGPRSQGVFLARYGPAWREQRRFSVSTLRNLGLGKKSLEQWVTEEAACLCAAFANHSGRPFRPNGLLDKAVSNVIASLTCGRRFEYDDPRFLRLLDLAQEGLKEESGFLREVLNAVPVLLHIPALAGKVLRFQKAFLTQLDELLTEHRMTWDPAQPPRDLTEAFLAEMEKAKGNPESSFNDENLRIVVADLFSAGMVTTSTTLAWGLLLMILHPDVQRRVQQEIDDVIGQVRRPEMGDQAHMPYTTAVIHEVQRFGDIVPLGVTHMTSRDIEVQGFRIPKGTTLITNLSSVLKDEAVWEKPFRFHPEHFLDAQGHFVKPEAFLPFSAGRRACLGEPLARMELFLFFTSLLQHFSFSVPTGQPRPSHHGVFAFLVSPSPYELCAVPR
# Cytochrome P450 2C19, sequence (P33261 whole entry): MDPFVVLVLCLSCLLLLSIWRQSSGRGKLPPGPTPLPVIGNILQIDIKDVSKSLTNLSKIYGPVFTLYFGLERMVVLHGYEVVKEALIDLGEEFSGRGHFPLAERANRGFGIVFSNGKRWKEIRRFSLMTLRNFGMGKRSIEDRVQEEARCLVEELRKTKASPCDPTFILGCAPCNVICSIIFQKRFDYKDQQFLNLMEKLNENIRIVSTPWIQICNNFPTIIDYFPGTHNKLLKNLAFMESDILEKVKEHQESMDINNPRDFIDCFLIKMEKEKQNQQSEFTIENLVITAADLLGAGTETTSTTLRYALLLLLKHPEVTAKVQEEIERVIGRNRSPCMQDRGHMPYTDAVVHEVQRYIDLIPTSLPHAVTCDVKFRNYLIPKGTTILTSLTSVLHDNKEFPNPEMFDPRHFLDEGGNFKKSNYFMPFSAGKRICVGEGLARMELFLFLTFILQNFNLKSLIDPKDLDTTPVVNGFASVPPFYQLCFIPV
# Cytochrome P450 3A4, sequence (P08684 whole entry): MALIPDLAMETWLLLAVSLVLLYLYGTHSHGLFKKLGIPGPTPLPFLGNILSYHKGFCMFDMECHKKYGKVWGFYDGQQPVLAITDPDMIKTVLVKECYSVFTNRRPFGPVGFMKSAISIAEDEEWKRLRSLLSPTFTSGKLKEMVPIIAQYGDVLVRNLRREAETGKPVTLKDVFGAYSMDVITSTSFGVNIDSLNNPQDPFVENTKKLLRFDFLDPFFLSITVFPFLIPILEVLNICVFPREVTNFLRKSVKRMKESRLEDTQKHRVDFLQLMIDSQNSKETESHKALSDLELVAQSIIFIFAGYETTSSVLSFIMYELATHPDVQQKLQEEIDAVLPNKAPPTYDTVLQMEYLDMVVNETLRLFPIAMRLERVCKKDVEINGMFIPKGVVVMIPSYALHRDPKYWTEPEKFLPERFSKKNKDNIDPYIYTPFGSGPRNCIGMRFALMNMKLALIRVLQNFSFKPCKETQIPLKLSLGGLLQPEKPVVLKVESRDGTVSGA
# Cytochrome P450 2C9, sequence (P11712 whole entry): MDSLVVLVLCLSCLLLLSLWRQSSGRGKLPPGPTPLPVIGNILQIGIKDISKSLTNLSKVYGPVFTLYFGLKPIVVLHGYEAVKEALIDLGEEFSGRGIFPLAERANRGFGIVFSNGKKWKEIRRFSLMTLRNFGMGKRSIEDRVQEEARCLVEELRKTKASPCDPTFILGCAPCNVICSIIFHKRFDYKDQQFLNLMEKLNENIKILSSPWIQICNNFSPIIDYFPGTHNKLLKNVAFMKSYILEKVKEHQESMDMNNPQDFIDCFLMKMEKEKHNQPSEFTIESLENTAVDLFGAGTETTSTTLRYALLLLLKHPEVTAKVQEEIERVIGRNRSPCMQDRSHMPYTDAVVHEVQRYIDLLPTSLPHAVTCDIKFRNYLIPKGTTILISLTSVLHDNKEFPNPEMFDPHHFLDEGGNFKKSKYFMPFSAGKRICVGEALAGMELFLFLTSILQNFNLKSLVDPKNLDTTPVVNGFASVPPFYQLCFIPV
smiles,measurement,setting,value
c1cncc(CNc2nc(-c3cccnc3)nc3ccccc23)c1,AC50,[1],20 µM (inconclusive)
same,AC50,[2]; read-out: AC50,39.8 µM (inconclusive)
same,AC50,[3],0.316 µM (active)
CCNc1ncc2nc(C)c(=O)n(C)c2n1,AC50,[1],39.8 µM (inconclusive)
COc1ccc(/C=N\c2c(O)ccc3ccccc23)cc1OC,AC50,[2]; read-out: AC50,5.01 µM (inconclusive)
same,AC50,[4],6.31 µM (inconclusive)
O=C(C[C@@H](c1ccccc1)N1CCCCC1)c1ccccc1,AC50,[5],3.16 µM (inconclusive)
O=C(CC1CCCCC1)N1CCC(c2nc(-c3ccc(S(=O)(=O)N4CCCC4)cc3)no2)CC1,AC50,[4],14.1 µM (inconclusive)
COc1ccc(-c2nc3cnc(N4CCNCC4)nc3n(CCc3ccccc3)c2=O)cc1,AC50,[1],15.8 µM (inconclusive)
same,AC50,[2]; read-out: AC50,39.8 µM (inconclusive)
same,AC50,[3],15.8 µM (inconclusive)
same,AC50,[4],20 µM (inconclusive)
O=C(Nc1ccc(Cl)cc1)C1CCCN1C(=O)NCc1ccccc1 (centres undefined),EC50,[6],> 195 µM (not active)
C[C@@H](C(=O)O)[C@@H]1C[C@@]1(C)[C@@H](NC(=O)OCc1ccccc1)c1ccccc1,AC50,[4],15.8 µM (inconclusive)
CCOC(=O)Nc1ccc2c(c1)OCO2,AC50,[1],35.5 µM (inconclusive)
same,AC50,[5],39.8 µM (inconclusive)
COc1ccc(O[C@H]2C=C[C@@H](c3ccccc3)O[C@H]2COC(=O)CC/C(C)=N/OCC[C@@H]2C=C[C@H](OC(C)=O)[C@H](COC(C)=O)O2)cc1,AC50,[1],0.794 µM (inconclusive)
Cc1cc(=O)oc2c(C)c(OC(C)C(=O)NCCCN3CCOCC3)ccc12 (centres undefined),EC50,[6],> 195 µM (not active)
C[C@@H](C(=O)O)[C@H]1C[C@]1(C)[C@H](NC(=O)OCc1ccccc1)c1ccccc1,AC50,[4],12.6 µM (inconclusive)
O=C(O)/C=C\C(=O)Nc1ccc2c(c1)-c1ccccc1C2,AC50,[3],1 µM (inconclusive)
same,AC50,[4],3.98 µM (inconclusive)
COc1cc(/C=C/C(=O)Nc2ccccc2C(F)(F)F)cc(OC)c1OC,AC50,[2]; read-out: AC50,17.8 µM (inconclusive)
same,AC50,[3],28.2 µM (inconclusive)
same,AC50,[4],14.1 µM (inconclusive)
CCc1ccc(N/C(SCc2ccccc2C)=C(/C#N)C(=O)NCc2ccco2)cc1,AC50,[1],15.8 µM (inconclusive)
same,AC50,[3],7.08 µM (inconclusive)
COC(=O)N1CCC2(CCN(C(=O)Nc3ccc(OC)cc3)CC2)CC1,AC50,[1],39.8 µM (inconclusive)
same,AC50,[3],25.1 µM (inconclusive)
O=C(NNS(=O)(=O)c1ccc(Cl)cc1)c1cnn(-c2ccccc2)c1-n1cccc1,AC50,[4],25.1 µM (inconclusive)
CC(C)OC(=O)c1nnn(-c2nonc2N)c1CSc1ccccn1,AC50,[1],15.8 µM (inconclusive)
Cn1cccc1C(=O)N1CCC[C@@]2(CCN(C(=O)Nc3cccc(C#N)c3)C2)C1,AC50,[4],25.1 µM (inconclusive)
c1ccc(CN2CCCC3(CCNCC3)C2)cc1,AC50,[1],12.6 µM (inconclusive)
CC(C)c1ccc2oc(=O)cc(CN3CCCCC3)c2c1,EC50,[6],> 195 µM (not active)
CCCc1nc2sc3ccccc3c(=O)c2c(=O)n1CCOC,AC50,[2]; read-out: AC50,39.8 µM (inconclusive)
same,AC50,[4],35.5 µM (inconclusive)
CCc1nnc(NC(=O)CSc2nc(C)c3c(c2C#N)CCCC3)s1,EC50,[6],> 195 µM (not active)
O=C(Cn1nnc2ccccc21)N1CCCCC1,AC50,[5],0.00562 µM (inconclusive)
same,AC50,[2]; read-out: AC50,22.4 µM (inconclusive)
CCN(CC)C[C@@H](O)c1ccc2ccc3ccccc3c2c1,AC50,[1],3.16 µM (inconclusive)
COc1cccc(-c2ccc3ncnc(NC4CCNCC4)c3c2)c1,AC50,[4],31.6 µM (inconclusive)
Cc1ccc(-c2nc3ccccc3s2)cc1NC(=S)NC(=O)c1ccccc1,AC50,[2]; read-out: AC50,22.4 µM (inconclusive)
same,AC50,[3],15.8 µM (inconclusive)
same,AC50,[4],14.1 µM (inconclusive)
CCCCN(C(=O)NC(=O)Nc1ccccc1OCC)S(C)(=O)=O,AC50,[5],8.91 µM (inconclusive)
Fc1ccc(-n2cc(CNCCc3ccccn3)c(-c3ccccc3Cl)n2)cc1,EC50,[6],> 195 µM (not active)
CC(C)C[C@H]1C(=O)N2CCC[C@@H]2[C@]2(O)O[C@](NC(=O)[C@@H]3C=C4c5cccc6[nH]c(Br)c(c56)C[C@H]4N(C)C3)(C(C)C)C(=O)N12,AC50,[5],10 µM (inconclusive)
O=C(c1ccncc1)N1CCC2(CC1)CN(c1ccncc1)C2,AC50,[5],31.6 µM (inconclusive)
CC(=O)OC[C@@H]1O[C@H](C/C=N\OC[C@@H](C)[C@H](OCc2ccccc2)C(C)C)C=C[C@@H]1OC(C)=O,AC50,[5],6.31 µM (inconclusive)
COC(=O)[C@@]1(Cc2ccc(F)cc2)[C@H]2c3cc(C(=O)N(C)C)n(Cc4ccc(C(F)(F)F)nc4)c3C[C@H]2CN1C(=O)c1ccccc1,AC50,[1],20 µM (inconclusive)
Cc1ccc2[nH]c(-c3ccc(NC(=O)Cc4cccs4)cc3)nc2c1,AC50,[5],0.708 µM (inconclusive)
same,AC50,[2]; read-out: AC50,1 µM (inconclusive)
COc1ccc(-c2nn(-c3ccccc3)cc2/C=C(\CC(=O)O)c2nc3ccccc3s2)cc1OC,EC50,[6],> 195 µM (not active)
CC(C)(C)N(NC(=O)c1ccccc1)C(=O)c1cccc(C(=O)N(NC(=O)c2ccccc2)C(C)(C)C)c1,AC50,[2],inconclusive
same,AC50,[4],3.98 µM (inconclusive)
COCCn1c(=O)c(-c2ccc(OC)cc2)nc2cnc(OC)nc21,AC50,[1],25.1 µM (inconclusive)
same,AC50,[5],39.8 µM (inconclusive)
same,AC50,[2]; read-out: AC50,39.8 µM (inconclusive)
c1ccc(CNc2ncncc2-c2cccnc2)cc1,AC50,[1],39.8 µM (inconclusive)
O=C(CC(Nc1ccccc1Cl)C(=O)OCC(=O)c1cccs1)c1ccccc1 (centres undefined),EC50,[6],0.847 µM (active)
O=C(CSc1nnc(COc2ccccc2)n1-c1ccccc1)c1ccccc1,AC50,[1],31.6 µM (inconclusive)
same,AC50,[3],28.2 µM (inconclusive)
O=C(Nc1ccc(F)cc1F)c1cc2nc3c(c(C(F)(F)F)n2n1)CCCC3,EC50,[6],< 0.16 µM (active)
COc1cccc(Nc2ncc3nc(CCc4ccccc4)c(=O)n(C4CC4)c3n2)c1,AC50,[3],5.01 µM (inconclusive)
same,AC50,[4],10 µM (inconclusive)
CN1CCN(c2ncncc2-c2ccoc2)CC1,AC50,[1],31.6 µM (inconclusive)
same,AC50,[2],inconclusive
same,AC50,[3],31.6 µM (inconclusive)
O=C(c1csnn1)N1CCC2(CC1)CN(c1cccc(-c3ccccc3)c1)C2,AC50,[1],10 µM (inconclusive)
same,AC50,[4],39.8 µM (inconclusive)
COC(=O)[C@@]1(Cc2ccc(F)cc2)[C@H]2c3cc(C(=O)N(C)C)n(Cc4ccc(C)o4)c3C[C@H]2CN1C(=O)c1ccccc1,AC50,[1],39.8 µM (inconclusive)
COc1ccc(CNc2nc(-c3c(C)noc3C)nc3ccccc23)c(OC)c1,AC50,[5],1 µM (inconclusive)
O=C(CCN1C(=O)/C(=C/c2ccc(F)cc2)SC1=S)NCCCn1ccnc1,EC50,[6],> 195 µM (not active)
CCN(Cc1ccccc1)S(=O)(=O)c1ccc(F)cc1,EC50,[6],> 195 µM (not active)
C[C@@H](C(=O)NCc1nc2ccccc2[nH]1)[C@@H]1C[C@@]1(C)[C@@H](NC(=O)OCc1ccccc1)c1ccccc1,AC50,[1],15.8 µM (inconclusive)
same,AC50,[3],12.6 µM (inconclusive)
Cc1ccc(C(=O)CSc2nc(C)cc(=O)[nH]2)cc1,AC50,[5],0.0282 µM (inconclusive)
same,AC50,[2]; read-out: AC50,39.8 µM (inconclusive)
same,AC50,[3],31.6 µM (inconclusive)
CC(NC(=O)Cn1cnc([N+](=O)[O-])n1)c1ccccc1 (centres undefined),AC50,[5],35.5 µM (inconclusive)
Cn1cc(/C=N/n2cnc3scc(-c4ccccc4)c3c2=O)c2ccccc21,AC50,[4],3.98 µM (inconclusive)
O=C(CN1CCN(Cc2ccccc2)CC1)N/N=C\C=C/c1ccco1,EC50,[6],> 195 µM (not active)
Cc1oc(/C=N/NC(=O)CC2(C)OCCO2)cc1Br,EC50,[6],> 195 µM (not active)
O=C(N/N=C(\c1ccccc1)c1cccnc1)C(O)(c1ccccc1)c1ccccc1,AC50,[5],0.794 µM (inconclusive)
CC(C)(C)NC(=O)C(=O)N/N=C/c1ccc(Br)cc1,AC50,[5],15.8 µM (inconclusive)
same,AC50,[3],15.8 µM (inconclusive)
Clc1ccc(/C=N/c2c(-c3ccc(Cl)cc3)nc3n2CCS3)cc1,AC50,[5],10 µM (inconclusive)
CN(C)CCCn1cc(C2=C(c3c[nH]c4ccccc34)C(=O)NC2=O)c2ccccc21 [GF-109203],AC50,[5],15.8 µM (inconclusive)
CC(=O)NCCc1c(Cc2ccccc2)[nH]c2ccccc12 [LUZINDOLE],AC50,[5],15.8 µM (inconclusive)
[H]/N=C(\N/C(=N/[H])Nc1ccc(Cl)cc1)NC(C)C [PROGUANIL],AC50,[1],10 µM (inconclusive)
